Laboratory results taken from patent publication US20210106703A1, “RADIOIMMUNOCONJUGATES IN COMBINATION WITH OTHER DRUGS AS TREATMENT AGAINST NHL” (Nordic Nanovector ASA, priority 2017, published 2021).
“Also recorded” adds a separate entry of the source.

T1: CD37 receptor (Homo sapiens, UniProt P11049)
T1 sequence (P11049 1-281): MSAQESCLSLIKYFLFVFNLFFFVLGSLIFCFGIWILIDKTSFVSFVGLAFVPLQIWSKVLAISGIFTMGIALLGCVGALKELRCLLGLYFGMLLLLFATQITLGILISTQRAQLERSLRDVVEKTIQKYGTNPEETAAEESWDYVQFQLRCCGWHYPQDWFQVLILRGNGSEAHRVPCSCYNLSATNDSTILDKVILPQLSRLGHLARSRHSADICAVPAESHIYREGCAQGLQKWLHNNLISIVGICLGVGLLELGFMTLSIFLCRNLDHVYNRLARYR


Experiments:
DOHH2 cells [1] = test: Cell cycle analysis (PI, Muse flow cytometer); format: cell-based, human; settings: DOHH2, 1 μM inhibitor + ^177Lu-lilotomab, versus ^177Lu-lilotomab alone or untreated
Method: (§1) Cells were harvested at day 0, 2 h, 18 h, 1 d, 2 d, 3 d, of RIT then fixed in 70% ethanol at −20° C. for 3 hours and stained with Cell Cycle kit (with PI) reagent from Merck Millipore in the dark for 30 min at room temperature before analysis using a Muse® flow cytometer. The percentage of cells in G0/G1, S and G2/M phases was then calculated (mean of three experiments in triplicate).
(§2) At different times after start of incubation, proteins were extracted to measure the CDK1 phosphorylation levels, in parallel, proliferation was determined and at 18 h and 24 h after start of incubation, the percentage of cells in G2/M was assessed (experiments were performed three time except the cell cycle analysis).
(§3) Cells were harvested at 0 h, 2 h, 18 h, 1 d, 2 d, 3 d, and fixed in 70% ethanol at −20° C. for at least 3 h. After staining with the Muse® Cell Cycle Assay Kit (Merck Millipore, Molsheim, France) using propidium iodide in the dark at room temperature for 30 min, cell cycle distribution was analyzed using a Muse® flow cytometer. The percentage of cells in the G0/G1, S and G2/M was calculated (mean of three experiments in triplicate) and the effect of WEE-1 and MYT-1 kinase inhibitors on the cell cycle was assessed.

Ramos cells [2] = test: Cell cycle analysis (PI, Muse flow cytometer); format: cell-based, human; settings: 1 μM inhibitor + ^177Lu-lilotomab, versus ^177Lu-lilotomab alone or untreated
Method: as §1, §2, §3

Rec-1 cells [3] = test: Cell cycle analysis (PI, Muse flow cytometer); format: cell-based, human; settings: Rec-1, 1 μM inhibitor + ^177Lu-lilotomab, versus ^177Lu-lilotomab alone or untreated
Method: as §1, §2, §3

OCI-Ly8 cells = test: Cell cycle analysis (PI, Muse flow cytometer); format: cell-based, human; settings: OCI-Ly8, 1 μM inhibitor + ^177Lu-lilotomab, versus ^177Lu-lilotomab alone
Method: as §3, with “[…],” for “h, 2 h, 18 h, 1 d, 2 d, 3 d,”, “-20°” for “−20°”

DOHH2 cells [4] = test: Proliferation study with Wee-1/Myt-1 inhibitors and ^177Lu-lilotomab; format: cell-based, human; settings: DOHH2, inhibitor alone 1 μM for 18 h, 6 days after start
Method: (§4) Cells were treated for 18 h with 1 μM of the selective Wee-1 kinase inhibitor MK-1775 (Selleckchem, Houston, USA) or of the dual Wee-1/Myt-1 inhibitor PD-166285 (EMD Merck Millipore/Calbiochem, Molsheim, France) alone or in combination with 6 MBq/mL, 2 MBq/mL and 0.5 MB/mL of ^177Lu-lilotomab for Ramos, Rec-1 and DOHH2 cells respectively. At different times after start of incubation, proteins were extracted to measure the CDK1 phosphorylation levels, in parallel, proliferation was determined and at 18 h and 24 h after start of incubation, the percentage of cells in G2/M was assessed (experiments were performed three time except the cell cycle analysis).
(§5) The activity used for the treatment with ^177Lu-lilotomab was chosen to decrease the proliferation to about 50% for the three cell lines compared with non-treated cells.
(§6) Inhibition of G2/M cell cycle arrest radiosensitises radioresistant Ramos model. The Bliss independence mathematical model was next used to investigate the role of MK-1775 or PD-166285 on the response to ^177Lu-lilotomab. A theoretical therapeutic efficacy was calculated for the two combinations (MK-1775 or PD-166285) in the three cell lines. And the comparison between the experimental and the theoretical curves was done.
(§7) Theoretical efficacyRIT+inhib=EfficacyRIT+Efficacyinhib−(EfficacyRIT×Efficacyinhib)

Ramos cells [5] = test: as above; format: cell-based, human; settings: inhibitor 1 μM + ^177Lu-lilotomab 6 MBq/mL (RIT) for 18 h, 6 days after start
Method: as §4, §5, §6, §7

DOHH2 cells [6] = test: Apoptosis induction (Annexin V/7-AAD, Muse flow cytometer); format: cell-based, human; settings: DOHH2, 18 h exposure to unlabelled mAb, plateau at 18 h
Method: (§8) Cells were harvested at 0, 2 h, 18 h, 1 d, 2 d, 3 d of RIT. At each time point, apoptosis was detected with […] from Merck Millipore (Annexin V Kit with 7-AAD) in the dark for 30 min at room temperature before analysis using Muse® flow cytometer

Ramos cells [7] = test: as above; format: cell-based, human; settings: 18 h exposure to unlabelled mAb, at peak time
Method: as §8

Rec-1 cells [8] = test: as above; format: cell-based, human; settings: Rec-1, 18 h exposure to unlabelled mAb, at peak time
Method: as §8

CD37 receptor = molecular target: T1, CD37 receptor; settings: cited from earlier work
OCI-Ly8 tumor xenografts = test: Treatment of mice with tumor xenografts; settings: single agent

Molecule | Proportion of cells in G2/M, inhibitor combined with ^177Lu-lilotomab (DOHH2 cells [1]) | Proportion of cells in G2/M, inhibitor combined with ^177Lu-lilotomab (Ramos cells [2]) | Proportion of cells in G2/M, inhibitor combined with ^177Lu-lilotomab (Rec-1 cells [3]) | Proportion of cells in G2/M, inhibitor combined with ^177Lu-lilotomab (OCI-Ly8 cells) | Proliferation (treated/untreated cells) (DOHH2 cells [4]) [%] | Proliferation (treated/untreated cells) (Ramos cells [5]) [%] | Apoptosis level (DOHH2 cells [6]) | Apoptosis level (Ramos cells [7]) | Apoptosis level (Rec-1 cells [8]) | Equilibrium dissociation constant (CD37 receptor) | Therapeutic efficacy compared with control (OCI-Ly8 tumor xenografts)
CCN(CC)CCOc1ccc(Nc2ncc3cc(-c4c(Cl)cccc4Cl)c(=O)n(C)c3n2)cc1 [PD-166285] | higher than that induced by the combination with the MK-1775; also recorded: reduction of the fraction of G2/M cells | reduction of the fraction of G2/M cells | reduction of the fraction of G2/M cells | reduction of the fraction of G2/M cells | 18 | ~10 |  |  |  |  | 
lilotomab: murine anti-CD37 IgG1 mAb (antibody, chains of the INN, looked up, V domains shown) VH: EIQLQQSGPELVKPGASVKVSCKASGYSFTDYNMYWVKQSHGKSLEWIGYIDPYNGDTTYNQKFKGKATLTVDKSSSTAFIHLNSLTSEDSAVYYCARSPYGHYAMDYWGQGTSVTVSS VL: DIVMTQSHKLLSTSVGDRVSITCKASQDVSTAVDWYQQKPGQSPKLLINWASTRHTGVPDRFTGSGSGTDYTLTISSMQAEDLALYYCRQHYSTPFTFGSGTKLEIK |  |  |  |  |  |  | No apoptosis was induced | No apoptosis was induced | No apoptosis was induced | nanomolar | no therapeutic efficacy
